The values below come from patent publication US8642612B2, “Nicotinic desensitizers and methods of selecting, testing, and using them” (Potomac Pharmaceuticals, Inc., priority 2006, dated 2014).

For one series, the target named is T1, rat α4β2 nAChRs (Rattus norvegicus, UniProt P09483+P12390).
T1 construct: expressed in transfected cells; host or cells: HEK cells (membrane homogenates)
Put plainly: [3H]epibatidine competition binding, rat α4β2 nAChRs expressed in HEK cells. As for the experimental part: (§1) Briefly, cultured cells at >80% confluence were removed from their flasks (80 cm^2) with a disposable cell scraper and placed in 10 ml of 50 mM Tris HCl buffer (pH 7.4, 4° C.). The cell suspension was centrifuged at 10,000×g for 5 min and the pellet was collected. For cells treated chronically with nicotinic agonists during culturing, the pellet was washed two more times by centrifugation in fresh buffer to remove residual drug. […] Bound and free ligands were separated by vacuum filtration through Whatman GF/C filters treated with 0.5% polyethylenimine. The filter-retained radioactivity was measured by liquid scintillation counting. Specific binding was defined as the difference between total binding and nonspecific binding. Data from saturation and competition binding assays were analyzed using Prism 4 (GraphPad Software, San Diego, Calif.).
(§2) All ligand binding assays were carried out using rat or human nAChRs heterologously expressed in human cells or in native rat brain tissues.

In series [1] the target is T2, human α4β2 nAChRs (Homo sapiens, UniProt P17787+P43681).
T2 construct: expressed in transfected cells; the efflux text says only stably transfected cells
It is filed as cell-based. The settings on record: stimulation of 86Rb+ efflux. As for the experimental part:
(§3) In brief, cells were plated into 24-well plates coated with poly-D-lysine. […] The cells were then incubated in growth medium (0.5 ml/well) containing ^86Rb^+ (2 μCi/ml) for 4 hour at 37° C. The loading mixture was then aspirated, and the cells were washed four times with 1 ml buffer (15 mM HEPES, 140 mM NaCl, 2 mM KCl, 1 mM MgSO4, 1.8 mM CaCl2, 11 mM Glucose, pH 7.4). One ml of buffer with or without compounds to be tested was then added to each well. After incubation for 2 min, the assay buffer was collected for measurements of ^86Rb^+ released from the cells. Cells were then lysed by adding 1 ml of 100 mM NaOH to each well, and the lysate was collected for determination of the amount of ^86Rb^+ that was in the cells at the end of the efflux assay. Radioactivity of assay samples and lysates was measured by liquid scintillation counting. Total loading (cpm) was calculated as the sum of the assay sample and the lysate of each well. The amount of ^86Rb^+ efflux was expressed as a percentage of […] loaded. […] IC50 values were determined by nonlinear least-squares regression analyses (GraphPad, San Diego, Calif.).
(§4) The agonist activities of ligands on nAChRs were assessed by measuring agonist-stimulated ^86Rb^+ efflux from stably transfected cells.

Series [2] deals with T3, rat α3β4 nAChRs (Rattus norvegicus, UniProt P04757+P12392).
T3 construct: expressed in transfected cells; the efflux text says only stably transfected cells
It counts as cell-based. The following applies: stimulation of 86Rb+ efflux. As for the experimental part: as §3, §4

Series [3] deals with T2, human α4β2 nAChRs. In words: Inhibition of nicotine-stimulated 86Rb+ efflux, cells expressing human α4β2 nAChRs. It is filed as cell-based. As for the experimental part:
as §3

The target of series [4] is T3, rat α3β4 nAChRs. Put plainly: [3H]epibatidine competition binding, rat α3β4 nAChRs expressed in HEK cells. As for the experimental part: as §1, with “drug. The cell pellet was then homogenized in 10 ml buffer with a polytron homogenizer (Model PT2100, 12 mm aggregate, 26,000 rpm, 20 seconds) and centrifuged at 36,000 g for 10 min at 4° C. The membrane pellet was resuspended in fresh buffer, and aliquots of the membrane preparation equivalent to 30 to 200 μg protein were used for binding assays.” for “drug.”
as §2

The target of series [5] is T3, rat α3β4 nAChRs. In words: Inhibition of nicotine-stimulated 86Rb+ efflux, cells expressing rat α3β4 nAChRs. It is filed as cell-based. As for the experimental part:
as §3

For series [6] the following is noted: cited from earlier work.
The conditions of series [7]: cited from earlier work. This is another data set of the same source.
The mark [8] stands for this setting: example tables, species not given, read-out: Equilibrium binding affinity (Ki, nM) α4β2.
[9] abbreviates: 10 min pretreatment before nicotine, read-out: Desensitization Potency (IC50(D,10 min), nM) α4β2.
[10] abbreviates: applied simultaneously with nicotine, read-out: Acute Antagonist Potency (IC50(A), nM) α4β2.
Setting [11] is: example tables, species not given, read-out: Equilibrium binding affinity (Ki, nM) α3β4.
Where [12] appears, read: 10 min pretreatment before nicotine, read-out: Desensitization Potency (IC50(D,10 min), nM) α3β4.
Setting [13] is: Acute Antagonist Potency (IC50(A), nM) α4β2, applied simultaneously with nicotine.
Setting [14] is: Desensitization Potency (IC50(D,10 min), nM) α4β2, 10 min pretreatment before nicotine.
Setting [15] is: Acute Antagonist Potency (IC50(A), nM) α3β4, applied simultaneously with nicotine.
Where [16] appears, read: Desensitization Potency (IC50(D,10 min), nM) α3β4, 10 min pretreatment before nicotine.
Setting [17] is: applied simultaneously with nicotine, read-out: Acute Antagonist Potency (IC50(A), nM) α3β4.

Like-named read-outs stand apart in the source and are kept apart here.

Regarding `O=c1cc(CO)cc2n1CC1CNCC2C1` (stereo not shown) [SKC-2-203], the Ki at rat α4β2 nAChRs (setting [8]) was determined as 11 nM; on rat α3β4 nAChRs [4] (setting [11]) it was 13000 nM. Moreover, on human α4β2 nAChRs [1], the “Agonist Activity α4β2” value is “Not detected”. The “Agonist Activity α3β4” value at rat α3β4 nAChRs [2] is recorded as “Not detected”. In addition, the IC50 is 600 nM on human α4β2 nAChRs [3] (setting [9]); above 10000 nM on human α4β2 nAChRs [3] (setting [10]); above 10000 nM on rat α3β4 nAChRs [5] (setting [12]); above 10000 nM on rat α3β4 nAChRs [5] (read-out: Acute Antagonist Potency (IC50(A), nM) α3β4).
Consider `CN1CCC[C@H]1COc1cncc(C#CC(C)(C)O)c1` [ZW-88], for which the Ki on rat α4β2 nAChRs (setting [8]) worked out at 2.9 nM; on rat α3β4 nAChRs [4], 61000 nM. Moreover, the “Agonist Activity α4β2” value at human α4β2 nAChRs [1] is listed as “Not detected”. The “Agonist Activity α3β4” value at rat α3β4 nAChRs [2] is listed as “Not detected”. In addition, the IC50 at human α4β2 nAChRs [3] (setting [13]) is above 10000 nM; at human α4β2 nAChRs [3] (setting [14]), 890 nM; on rat α3β4 nAChRs [5] (setting [15]), above 10000 nM; at rat α3β4 nAChRs [5] (setting [16]), above 10000 nM.
Take `CN1CCCC1c1cccnc1` (single isomer, unassigned; (-)) [(−)-Nicotine, nicotine]: the t1/2 in vivo in series [6] was above 1 h.
Turning to `CN1CCC[C@H]1COc1cncc(C#CCCCCF)c1` [ZW-110], the results for the Ki on rat α4β2 nAChRs (setting [8]) and on rat α3β4 nAChRs [4] (setting [11]) were 0.95 nM and 88000 nM, respectively. Also, on human α4β2 nAChRs [1], the “Agonist Activity α4β2” value is recorded as “Not detected”. Besides, on rat α3β4 nAChRs [2], the “Agonist Activity α3β4” value was “Not detected”. Further, the IC50 at human α4β2 nAChRs [3] (setting [13]) was above 10000 nM; on human α4β2 nAChRs [3] (setting [14]), 60 nM; on rat α3β4 nAChRs [5] (setting [15]) it was above 10000 nM; on rat α3β4 nAChRs [5] (setting [16]) it was above 10000 nM.
Turning to `CN1CCC[C@H]1COc1cncc(C#CCCCCBr)c1` [ZW-109], the Ki at rat α4β2 nAChRs stood at 1.4 nM; at rat α3β4 nAChRs [4], 16000 nM. Moreover, the “Agonist Activity α4β2” value at human α4β2 nAChRs [1] is on record as “Not detected”. The “Agonist Activity α3β4” value on rat α3β4 nAChRs [2] was “Not detected”. Moreover, the IC50 is 270 nM on human α4β2 nAChRs [3] (setting [9]), above 10000 nM at human α4β2 nAChRs [3] (setting [10]), 2300 nM on rat α3β4 nAChRs [5] (setting [12]) and 6900 nM at rat α3β4 nAChRs [5] (setting [17]).
Turning to `CCCCC#Cc1cncc(OC[C@@H]2CCCN2C)c1` [ZW-100], the Ki at rat α4β2 nAChRs (setting [8]) stood at 1.4 nM; on rat α3β4 nAChRs [4] (setting [11]), 40000 nM. For the same compound, on human α4β2 nAChRs [1], the “Agonist Activity α4β2” value is given as “Not detected”. Also, the “Agonist Activity α3β4” value on rat α3β4 nAChRs [2] is listed as “Not detected”. In addition, the IC50 is 190 nM on human α4β2 nAChRs [3] (setting [9]), above 10000 nM at human α4β2 nAChRs [3] (setting [10]), 3300 nM on rat α3β4 nAChRs [5] (setting [12]) and above 10000 nM at rat α3β4 nAChRs [5] (setting [17]).
Turning to `c1cnc2cc3c(cc2n1)[C@@H]1CNC[C@H]3C1` [varenicline], the “nausea, share of clinical trial participants” value in series [7] was around 30%.
In the case of `CN1CCC[C@H]1COc1cncc(C#Cc2ccccc2)c1` [ZW-98], the Ki was 0.51 nM at rat α4β2 nAChRs (setting [8]) and 8100 nM at rat α3β4 nAChRs [4] (setting [11]). For the same compound, the “Agonist Activity α4β2” value on human α4β2 nAChRs [1] was “Not detected”. The “Agonist Activity α3β4” value at rat α3β4 nAChRs [2] is “Not detected”. The IC50 on human α4β2 nAChRs [3] (setting [9]) was 170 nM; on human α4β2 nAChRs [3] (setting [10]) it was above 10000 nM; at rat α3β4 nAChRs [5] (setting [12]) it was 5300 nM; on rat α3β4 nAChRs [5] (setting [17]), above 10000 nM.
For the compound `CN1CCC[C@H]1COc1cncc(C#CCO)c1` [ZW-89], the Ki amounted to 0.93 nM at rat α4β2 nAChRs (setting [8]) and 23000 nM on rat α3β4 nAChRs [4] (setting [11]). Moreover, the “Agonist Activity α4β2” value at human α4β2 nAChRs [1] is recorded as “Not detected”. Also, at rat α3β4 nAChRs [2], the “Agonist Activity α3β4” value was “Not detected”. Besides, the IC50 on human α4β2 nAChRs [3] (setting [13]) was above 10000 nM; at human α4β2 nAChRs [3] (setting [14]), 180 nM; at rat α3β4 nAChRs [5] (setting [15]), above 10000 nM; at rat α3β4 nAChRs [5] (setting [16]) it was above 10000 nM.

For orientation: Ki means the equilibrium dissociation constant of an inhibitor or competing ligand from its target. One may read the IC50 as the point on the concentration scale where inhibition reaches its midpoint.
